Key:
Assay type in all cases: binding
[1] = molecular target: T1, Sortase B (SrtBΔ30) (Staphylococcus aureus, UniProt Q2FZE3, N116A); assay: fluorescence spectroscopy quenching (association constant KA)
T1 construct: gene srtB; SrtBΔ30
T1 sequence (Q2FZE3 31-244 N116A): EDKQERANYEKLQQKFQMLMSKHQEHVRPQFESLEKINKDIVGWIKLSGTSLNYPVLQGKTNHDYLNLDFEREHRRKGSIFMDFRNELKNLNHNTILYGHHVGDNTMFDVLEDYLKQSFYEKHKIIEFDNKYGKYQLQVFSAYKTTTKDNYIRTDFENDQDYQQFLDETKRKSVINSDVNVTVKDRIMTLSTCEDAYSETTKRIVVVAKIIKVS
Excerpt: (§1) fluorescence spectroscopy quenching (association constant KA) on Sortase B (SrtBΔ30) | the binding constants (KA) of the ligand with the mutant proteins were lower

[2] = molecular target: T2, Sortase B (SrtBΔ30) (Staphylococcus aureus, UniProt Q2FZE3, R115A); assay: as above
T2 construct: gene srtB; SrtBΔ30
T2 sequence (Q2FZE3 31-244 R115A): T1 sequence (Q2FZE3 31-244 N116A)
Excerpt: as §1

[3] = molecular target: T3, Sortase B (SrtBΔ30) (Staphylococcus aureus, UniProt Q2FZE3, I182A); assay: as above
T3 construct: gene srtB; SrtBΔ30
T3 sequence (Q2FZE3 31-244 I182A): T1 sequence (Q2FZE3 31-244 N116A)
Excerpt: as §1

[4] = molecular target: T4, Sortase B (SrtBΔ30, WT) (Staphylococcus aureus, UniProt Q2FZE3); assay: fluorescence spectroscopy quenching (association constant KA); also FRET peptide-cleavage inhibition of the purified enzyme, IC50 […]
T4 construct: gene srtB; SrtBΔ30

## c1c2c(cc3c1OCO3)-c1cc3ccc4c(c3c[n+]1CC2)OCO4 [coptisine]
[1]
  Kd: 10.9 µM
[2]
  Kd: 12 µM
[3]
  Kd: 12.8 µM
[4]
  Kd: 7.35 µM
